Assay results as given in patent US9809574B2, “Isoindoline or isoquinoline compounds, a process for their preparation and pharmaceutical compositions containing them” (LES LABORATOIRES SERVIER, priority 2013, dated 2017).
Counter-ions that a name gives are not always drawn.

How the values were obtained:
Bcl-2 protein = Bcl-2 protein (histag-Bcl-2, UniProtKB P10415) (Homo sapiens (Human), UniProt P10415); assay: Inhibition of Bcl-2 by the fluorescence polarisation technique; type: binding; details: fluorescence polarisation test; incubation for 2 hours; read-out: IC50 (nM) Bcl-2 FP
Chain of Bcl-2 protein (P10415 whole entry): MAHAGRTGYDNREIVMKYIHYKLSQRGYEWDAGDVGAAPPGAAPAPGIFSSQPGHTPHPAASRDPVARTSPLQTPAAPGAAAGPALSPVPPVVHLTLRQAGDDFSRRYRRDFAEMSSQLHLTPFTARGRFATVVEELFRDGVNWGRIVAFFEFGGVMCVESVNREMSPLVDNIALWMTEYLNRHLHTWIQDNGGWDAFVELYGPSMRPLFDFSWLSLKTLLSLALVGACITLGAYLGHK
From the text: For partial inhibitors, the percentage fluorescence polarisation inhibition for a given concentration of the test compound is indicated.

[1] = system: RS4; 11 leukaemia cell line; assay: In vitro cytotoxicity, Microculture Tetrazolium Assay (MTT); type: cell-based; details: Homo sapiens, 11 cells exposed for 48 hours
Experimental: The cytotoxicity studies were carried out on the RS4; 11 leukaemia cell line and on H146 small Cell Lung Carcinoma cell line. The cells are distributed onto microplates and exposed to the test compounds for 48 hours. The cell viability is then quantified by a colorimetric assay, the Microculture Tetrazolium Assay (Cancer Res., 1987, 47, 939-942).

SMILES	IC50 (Bcl-2 protein) [nM]	IC50 [1] [nM]
Cc1c(C(=O)N(C)c2ccccc2)cc(-c2cc3c(cc2C(=O)N2Cc4ccccc4C[C@H]2CN2CCOCC2)CN(C(=O)Oc2cnc4[nH]ccc4c2)CC3)n1C [Example 633, 1H-Pyrrolo[2,3-b]pyridin-5-yl 6-{1,5-dimethyl-4-[methyl(phenyl)carbamoyl]-1H-pyrrol-2-yl}-7-[(3S)-3-(morpholin-4-ylmethyl)-1,2,3,4-tetrahydroisoquinoline-2-carbonyl]-1,2,3,4-tetrahydroisoquinoline-2-carboxylate]	6.1	22
Cc1c(C(=O)N(C)c2ccc(O)cc2)cc(-c2cc3c(cc2C(=O)N2Cc4ccccc4C[C@H]2CCN2CCOCC2)CN(C(=O)Oc2ccccc2)CC3)n1C [Example 216, Phenyl 6-{4-[(4-hydroxyphenyl)(methyl)carbamoyl]-1,5-dimethyl-1H-pyrrol-2-yl}-7-[(3S)-3-[2-(morpholin-4-yl)ethyl]-1,2,3,4-tetrahydroisoquinoline-2-carbonyl]-1,2,3,4-tetrahydroisoquinoline-2-carboxylate]	2.4	2.9
Cc1c(C(=O)N(C)c2ccccc2)cc(-c2cc3c(cc2C(=O)N2Cc4ccccc4C[C@H]2C)CN(C(=O)Oc2ccc(NCCN(C)C)cc2)CC3)n1C [Example 489, 4-{[2-(Dimethylamino)ethyl]amino}phenyl 6-{1,5-dimethyl-4-[methyl(phenyl)carbamoyl]-1H-pyrrol-2-yl}-7-[(3R)-3-methyl-1,2,3,4-tetrahydroisoquinoline-2-carbonyl]-1,2,3,4-tetrahydroisoquinoline-2-carboxylate]	3.2	68
CN(C(=O)c1cc(-c2cc3c(cc2C(=O)N2Cc4ccccc4C[C@H]2CN2CCOCC2)CN(C(=O)Oc2ccc(C#N)cc2)CC3)n2c1CCCC2)c1ccc(O)cc1 [Example 127, 4-Cyanophenyl 6-{1-[(4-hydroxyphenyl)(methyl)carbamoyl]-5,6,7,8-tetrahydroindolizin-3-yl}-7-[(3S)-3-(morpholin-4-ylmethyl)-1,2,3,4-tetrahydroisoquinoline-2-carbonyl]-1,2,3,4-tetrahydroisoquinoline-2-carboxylate]	3.3	6.4
C[C@@H]1Cc2ccccc2CN1C(=O)c1cc2c(cc1-c1cc(C(=O)N(C)c3ccc(O)cc3)c3n1CCCC3)CCN(S(=O)(=O)Cc1ccccc1)C2 [Example 40, N-(4-Hydroxyphenyl)-N-methyl-3-{7-[(3R)-3-methyl-1,2,3,4-tetrahydroisoquinoline-2-carbonyl]-2-phenylmethanesulfonyl-1,2,3,4-tetrahydroisoquinolin-6-yl}-5,6,7,8-tetrahydroindolizine-1-carboxamide]	3.6	34
Cc1c(C(=O)N(C)c2ccccc2)cc(-c2cc3c(cc2C(=O)N2Cc4ccccc4C[C@H]2CN2CCOCC2)CN(C(=O)Oc2ccc4cc[nH]c4c2)CC3)n1C [Example 629, 1H-Indol-6-yl 6-{1,5-dimethyl-4-[methyl(phenyl)carbamoyl]-1H-pyrrol-2-yl}-7-[(3S)-3-(morpholin-4-ylmethyl)-1,2,3,4-tetrahydroisoquinoline-2-carbonyl]-1,2,3,4-tetrahydroisoquinoline-2-carboxylate]	7.2	9
C[C@@H]1Cc2ccccc2CN1C(=O)c1cc2c(cc1-c1cc(C(=O)N(c3ccccc3)c3ccc(O)cc3)c3n1CCCC3)CNC2 [Example 44, N-(4-Hydroxyphenyl)-3-{6-[(3R)-3-methyl-1,2,3,4-tetrahydroisoquinoline-2-carbonyl]-2,3-dihydro-1H-isoindol-5-yl}-N-phenyl-5,6,7,8-tetrahydroindolizine-1-carboxamide]	13	443
CCCCN(CCCC)C(=O)c1cc(-c2cc3c(cc2C(=O)N2Cc4ccccc4C[C@H]2CN2CCOCC2)CN(C(=O)Oc2ccccc2)CC3)n(C)c1C [Example 197, Phenyl 6-[4-(dibutylcarbamoyl)-1,5-dimethyl-1H-pyrrol-2-yl]-7-[(3S)-3-(morpholin-4-ylmethyl)-1,2,3,4-tetrahydroisoquinoline-2-carbonyl]-1,2,3,4-tetrahydroisoquinoline-2-carboxylate]	26	> 150
CC(=O)Nc1ccc(OC(=O)N2CCc3cc(-c4cc(C(=O)N(C)c5ccc(O)cc5)c5n4CCCC5)c(C(=O)N4Cc5ccccc5C[C@H]4C)cc3C2)cc1 [Example 59, 4-Acetamidophenyl 6-{1-[(4-hydroxyphenyl)(methyl)carbamoyl]-5,6,7,8-tetrahydroindolizin-3-yl}-7-[(3R)-3-methyl-1,2,3,4-tetrahydroisoquinoline-2-carbonyl]-1,2,3,4-tetrahydroisoquinoline-2-carboxylate]	3.2	6.8
CN(C(=O)c1cc(-c2cc3c(cc2C(=O)N2Cc4ccccc4C[C@H]2CN2CCOCC2)CN(C(=O)NC(C)(C)C)C3)n2c1CCCC2)c1ccc(O)cc1 [Example 17, N-tert-Butyl-5-{1-[(4-hydroxyphenyl)(methyl)carbamoyl]-5,6,7,8-tetrahydroindolizin-3-yl}-6-[(3S)-3-(morpholin-4-ylmethyl)-1,2,3,4-tetrahydroisoquinoline-2-carbonyl]-2,3-dihydro-1H-isoindole-2-carboxamide hydrochloride]	91	1760
C[C@@H]1Cc2ccccc2CN1C(=O)c1cc2c(cc1-c1cc(C(=O)N(C)c3ccc(O)cc3)c3n1CCCC3)CN(C(=O)NCc1ccccc1)C2 [Example 61, N-Benzyl-5-{1-[(4-hydroxyphenyl)(methyl)carbamoyl]-5,6,7,8-tetrahydroindolizin-3-yl}-6-[(3R)-3-methyl-1,2,3,4-tetrahydroisoquinoline-2-carbonyl]-2,3-dihydro-1H-isoindole-2-carboxamide]	4.4	85
Cc1c(C(=O)N(C)c2ccc(O)cc2)cc(-c2cc3c(cc2C(=O)N2Cc4ccccc4C[C@H]2CN2CCOCC2)CN(C(=O)Oc2cccc(C#N)c2)CC3)n1C [Example 560, 3-Cyanophenyl 6-{4-[(4-hydroxyphenyl)(methyl)carbamoyl]-1,5-dimethyl-1H-pyrrol-2-yl}-7-[(3S)-3-(morpholin-4-ylmethyl)-1,2,3,4-tetrahydroisoquinoline-2-carbonyl]-1,2,3,4-tetrahydroisoquinoline-2-carboxylate]	8.8	70

The next lines start with results.

IC50 (Bcl-2 protein) [nM]	SMILES	IC50 [1] [nM]
4	Cc1c(C(=O)N(C)c2ccc(O)cc2)cc(-c2cc3c(cc2C(=O)N2Cc4ccccc4C[C@H]2C)CN(C(=O)Cc2ccccc2)CC3)n1C [Example 75, N-(4-Hydroxyphenyl)-N,1,2-trimethyl-5-{7-[(3R)-3-methyl-1,2,3,4-tetrahydroisoquinoline-2-carbonyl]-2-(2-phenylacetyl)-1,2,3,4-tetrahydroisoquinolin-6-yl}-1H-pyrrole-3-carboxamide]	6.2
3.6	Cc1c(C(=O)N(C)c2ccc(O)cc2)cc(-c2cc3c(cc2C(=O)N2Cc4ccccc4C[C@H]2C)CN(C(=O)COc2ccccc2)C3)n1C [Example 103, N-(4-Hydroxyphenyl)-N,1,2-trimethyl-5-{6-[(3R)-3-methyl-1,2,3,4-tetrahydroisoquinoline-2-carbonyl]-2-(2-phenoxyacetyl)-2,3-dihydro-1H-isoindol-5-yl}-1H-pyrrole-3-carboxamide]	46
4	CN(C(=O)c1cc(-c2cc3c(cc2C(=O)N2Cc4ccccc4C[C@H]2CN2CCOCC2)CN(C(=O)Nc2ccccc2)CC3)n2c1CCCC2)c1ccc(O)cc1 [Example 77, 6-{1-[(4-Hydroxyphenyl)(methyl)carbamoyl]-5,6,7,8-tetrahydroindolizin-3-yl}-7-[(3S)-3-(morpholin-4-ylmethyl)-1,2,3,4-tetrahydroisoquinoline-2-carbonyl]-N-phenyl-1,2,3,4-tetrahydroisoquinoline-2-carboxamide]	84
2.9	CCCCN(C(=O)c1cc(-c2cc3c(cc2C(=O)N2Cc4ccccc4C[C@H]2CN2CCOCC2)CN(C(=O)Cc2ccccc2)CC3)n(C)c1C)c1ccc(O)cc1 [Example 232, N-Butyl-N-(4-hydroxyphenyl)-1,2-dimethyl-5-{7-[(3S)-3-(morpholin-4-ylmethyl)-1,2,3,4-tetrahydroisoquinoline-2-carbonyl]-2-(2-phenylacetyl)-1,2,3,4-tetrahydroisoquinolin-6-yl}-1H-pyrrole-3-carboxamide]	11
24	C[C@@H]1Cc2ccccc2CN1C(=O)c1cc2c(cc1-c1cc(C(=O)N(C)c3ccc(O)cc3)c3n1CCCC3)CN(C(=O)NC(C)(C)C)C2 [Example 76, N-tert-Butyl-5-{1-[(4-hydroxyphenyl)(methyl)carbamoyl]-5,6,7,8-tetrahydroindolizin-3-yl}-6-[(3R)-3-methyl-1,2,3,4-tetrahydroisoquinoline-2-carbonyl]-2,3-dihydro-1H-isoindole-2-carboxamide]	> 150
4.4	Cc1c(C(=O)N(C)c2ccccc2)cc(-c2cc3c(cc2C(=O)N2Cc4ccccc4C[C@H]2C)CN(C(=O)Oc2ccc(CCC(=O)N(C)C)cc2)CC3)n1C [Example 788, 4-[2-(Dimethylcarbamoyl)ethyl]phenyl 6-{1,5-dimethyl-4-[methyl(phenyl)carbamoyl]-1H-pyrrol-2-yl}-7-[(3R)-3-methyl-1,2,3,4-tetrahydroisoquinoline-2-carbonyl]-1,2,3,4-tetrahydroisoquinoline-2-carboxylate]	14
4.8	C[C@@H]1Cc2ccccc2CN1C(=O)c1cc2c(cc1-c1cc(C(=O)N(C)c3ccc(O)cc3)c3n1CCCC3)CCN(C(=O)Cc1ccc(CN(C)C)cc1)C2 [Example 144, 3-[2-(2-{4-[(Dimethylamino)methyl]phenyl}acetyl)-7-[(3R)-3-methyl-1,2,3,4-tetrahydroisoquinoline-2-carbonyl]-1,2,3,4-tetrahydroisoquinolin-6-yl]-N-(4-hydroxyphenyl)-N-methyl-5,6,7,8-tetrahydroindolizine-1-carboxamide]	82
